Target: T1, mouse melanopsin (Mus musculus, UniProt Q9QXZ9)
T1 construct: the C-terminal amino acid residues (94, 140, 200, 214, 296, and 308 residues); expressed in transfected cells; host or cells: COS-1
Assay: GsX GloSensor assay with Gsα/i11
Format: cell-based
Conditions: 16.7 μM AA92593; COS-1 cells
Source text: Previous studies of human and mouse melanopsins reported that these melanopsins can activate not only Gq but Gs and Gi ([20], [21], [22]). Thus, we assessed the effect of AA92593 on Gsα WT or Gsα/i11 (with 11 C-terminal sequence of Giα) using the GsX GloSensor assay. In agreement with the promiscuous G protein-coupling of melanopsins, we observed light-dependent increase of GloSensor luminescence in COS-1 cells expressing Gsα or Gsα/i11 with human/mouse melanopsins (Fig. 1, G–J).
For GloSensor assay, opsins, GloSensor assay sensor (coded by pGlo-22F), and NanoBiT-tagged G proteins were transiently expressed in COS-1 cells (kindly provided from Dr David Farrens, Oregon Health and Science University) using PEI as described previously ([24], [52]). […] For GFP-fluorescence microscopy, a 35-mm cell culture dish (IWAKI) was transfected with 2 μg melanopsin-GFP plasmid and 8 μg PEI in 400 μl Opti-mem and 1.2 ml D-MEM. […]
The transfected COS-1 cells were incubated at 37 °C, 5% CO2 for 2 days, and the medium was aspirated and exchanged with 50 μl of HBSS (145 mM NaCl, 10 mM D-glucose, 5 mM KCl, 1 mM MgCl2, 1.7 mM CaCl2, 1.5 mM NaHCO3, 10 mM Hepes, pH 7.4), containing 33.3, 20, 10, 2, 0.2, 0.02, 0.002, or 0 μM AA92593, 0.5% dimetyl sulfoxide (DMSO), and 4% (vol/vol) GloSensor cAMP reagent stock solution. […] Luminescence was measured using GM-2000 or GM-3510 microplate reader (Promega). […]

T1 sequence (Q9QXZ9 1-381 limits assumed): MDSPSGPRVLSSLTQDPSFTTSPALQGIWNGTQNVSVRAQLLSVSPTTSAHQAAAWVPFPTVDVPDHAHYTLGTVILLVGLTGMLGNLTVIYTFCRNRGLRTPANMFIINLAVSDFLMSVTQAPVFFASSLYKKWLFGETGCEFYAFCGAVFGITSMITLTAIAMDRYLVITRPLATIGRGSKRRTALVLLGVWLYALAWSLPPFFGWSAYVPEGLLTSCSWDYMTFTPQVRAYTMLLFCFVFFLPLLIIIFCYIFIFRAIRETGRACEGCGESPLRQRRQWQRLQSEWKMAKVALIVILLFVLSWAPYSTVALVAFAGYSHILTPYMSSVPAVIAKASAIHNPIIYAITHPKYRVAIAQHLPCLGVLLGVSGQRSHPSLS

## COc1ccc(S(=O)(=O)N2CCCCC2)cc1C [AA92593]
  effect on melanopsin-induced cAMP responses via Gsα/i11: can suppress
